Data published in US9283222B2 (priority 2006, dated 2016).

target: Recombinant Human Poly(ADP-Ribose) Polymerase (PARP), PARP-1 (Homo sapiens (Human), UniProt P09874); conditions: read-out: PARP-1 (Ki); Table 1; text calls the values EC50s
Sequence (P09874 whole entry): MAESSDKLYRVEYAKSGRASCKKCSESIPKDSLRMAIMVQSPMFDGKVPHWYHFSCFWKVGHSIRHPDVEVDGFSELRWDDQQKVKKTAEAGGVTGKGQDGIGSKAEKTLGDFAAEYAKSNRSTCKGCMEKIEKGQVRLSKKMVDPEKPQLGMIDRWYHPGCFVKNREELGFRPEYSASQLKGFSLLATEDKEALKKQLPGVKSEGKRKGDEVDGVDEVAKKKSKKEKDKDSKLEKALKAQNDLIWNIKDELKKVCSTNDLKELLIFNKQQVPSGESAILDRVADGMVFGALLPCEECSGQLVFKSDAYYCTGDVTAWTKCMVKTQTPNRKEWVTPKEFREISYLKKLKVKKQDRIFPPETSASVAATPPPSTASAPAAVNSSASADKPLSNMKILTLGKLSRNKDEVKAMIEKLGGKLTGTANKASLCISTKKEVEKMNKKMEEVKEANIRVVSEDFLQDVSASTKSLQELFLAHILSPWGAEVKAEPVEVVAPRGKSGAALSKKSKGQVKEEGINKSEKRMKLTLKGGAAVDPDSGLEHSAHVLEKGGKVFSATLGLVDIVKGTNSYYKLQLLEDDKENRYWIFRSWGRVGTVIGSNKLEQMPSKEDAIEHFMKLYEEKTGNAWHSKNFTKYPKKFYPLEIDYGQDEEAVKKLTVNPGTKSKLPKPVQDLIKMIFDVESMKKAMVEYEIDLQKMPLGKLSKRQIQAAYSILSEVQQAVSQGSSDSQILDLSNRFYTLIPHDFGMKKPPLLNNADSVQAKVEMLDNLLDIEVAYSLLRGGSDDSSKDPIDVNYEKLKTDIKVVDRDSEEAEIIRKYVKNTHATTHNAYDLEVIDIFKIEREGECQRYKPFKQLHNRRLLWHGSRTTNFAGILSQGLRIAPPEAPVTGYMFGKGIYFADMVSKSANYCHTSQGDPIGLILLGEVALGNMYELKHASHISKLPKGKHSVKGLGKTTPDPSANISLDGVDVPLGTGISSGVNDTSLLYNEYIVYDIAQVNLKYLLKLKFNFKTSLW

| Ki [nM] | Structure (SMILES) |
| --- | --- |
| 70 | O=c1[nH]nc(Cc2cccs2)c2c1CCCC2 [Example 91, 4-(thien-2-ylmethyl)-5,6,7,8-tetrahydrophthalazin-1(2H)-one] |
| 167 | COC(=O)c1ccc(Cc2n[nH]c(=O)c3c2CCCC3)s1 [Example 92, methyl 5-((4-oxo-3,4,5,6,7,8-hexahydrophthalazin-1-yl)methyl)thiophene-2-carboxylate] |
| 840 | CNC(=O)c1ccc(Cc2n[nH]c(=O)c3c2CCCC3)cn1 [Example 93, N-methyl-5-((4-oxo-3,4,5,6,7,8-hexahydrophthalazin-1-yl)methyl)pyridine-2-carboxamide] |
| 856 | CCNC(=O)c1ccc(Cc2n[nH]c(=O)c3c2CCCC3)cn1 [Example 94, N-ethyl-5-((4-oxo-3,4,5,6,7,8-hexahydrophthalazin-1-yl)methyl)pyridine-2-carboxamide] |
| 1260 | CNC(=O)c1ncccc1Cc1n[nH]c(=O)c2c1CCCC2 [Example 95, N-methyl-3-((4-oxo-3,4,5,6,7,8-hexahydrophthalazin-1-yl)methyl)pyridine-2-carboxamide] |
| 2610 | CCNC(=O)c1ncccc1Cc1n[nH]c(=O)c2c1CCCC2 [Example 96, N-ethyl-3-((4-oxo-3,4,5,6,7,8-hexahydrophthalazin-1-yl)methyl)pyridine-2-carboxamide] |
| 390 | CN(C)S(=O)(=O)Nc1cccc(Cc2n[nH]c(=O)c3c2CCCC3)c1 [Example 97, N,N-dimethyl-N′-(3-((4-oxo-3,4,5,6,7,8-hexahydrophthalazin-1-yl)methyl)phenyl)sulfamide] |
| 286 | O=C(CCN1CCCCC1)Nc1cccc(Cc2n[nH]c(=O)c3c2CCCC3)c1 [Example 98, N-(3-((4-oxo-3,4,5,6,7,8-hexahydrophthalazin-1-yl)methyl)phenyl)-3-piperidin-1-ylpropanamide] |
| 44 | CCCC(=O)Nc1ccc(Cl)c(Cc2n[nH]c(=O)c3c2CCCC3)c1 [Example 99] |
| 21 | O=C1CCN1c1cc(Cc2n[nH]c(=O)c3c2CCCC3)ccn1 [Example 101, 4-((2-(2-oxoazetidin-1-yl)pyridin-4-yl)methyl)-5,6,7,8-tetrahydrophthalazin-1(2H)-one] |
| 1230 | O=C1CCCN1c1ccc(Cc2n[nH]c(=O)c3c2CCCC3)cn1 [Example 104, 4-((6-(2-oxopyrrolidin-1-yl)pyridin-3-yl)methyl)-5,6,7,8-tetrahydrophthalazin-1(2H)-one] |
| 725 | O=C1CCN1c1ccc(Cc2n[nH]c(=O)c3c2CCCC3)cn1 [Example 105, 4-((6-(2-oxoazetidin-1-yl)pyridin-3-yl)methyl)-5,6,7,8-tetrahydrophthalazin-1(2H)-one] |
| 290 | O=C(Nc1ccc(Cc2n[nH]c(=O)c3c2CCCC3)cn1)c1ccccc1 [Example 106, N-(5-((4-oxo-3,4,5,6,7,8-hexahydrophthalazin-1-yl)methyl)pyridin-2-yl)benzamide] |
| 216 | O=C(Nc1ccc(Cc2n[nH]c(=O)c3c2CCCC3)cn1)c1ccncc1 [Example 107, N-(5-((4-oxo-3,4,5,6,7,8-hexahydrophthalazin-1-yl)methyl)pyridin-2-yl)isonicotinamide] |
| 576 | O=C(Nc1ccc(Cc2n[nH]c(=O)c3c2CCCC3)cn1)c1cccnc1 [Example 108, N-(5-((4-oxo-3,4,5,6,7,8-hexahydrophthalazin-1-yl)methyl)pyridin-2-yl)nicotinamide] |
| 609 | O=c1[nH]nc(Cc2ccc(-c3ccc(Cc4n[nH]c(=O)c5c4CCCC5)cn3)nc2)c2c1CCCC2 [Example 109, 4-((5′-((4-oxo-3,4,5,6,7,8-hexahydrophthalazin-1-yl)methyl)-2,2′-bipyridin-5-yl)methyl)-5,6,7,8-tetrahydrophthalazin-1(2H)-one] |
| 372 | CNC(=O)c1ccc(Cc2n[nH]c(=O)c3c2CCCC3)s1 [Example 110, N-methyl-5-((4-oxo-3,4,5,6,7,8-hexahydrophthalazin-1-yl)methyl)thiophene-2-carboxamide] |
| 65 | CS(=O)(=O)Nc1cccc(Cc2n[nH]c(=O)c3c2CCCC3)c1 [Example 114, N-(3-((4-oxo-3,4,5,6,7,8-hexahydrophthalazin-1-yl)methyl)phenyl)methanesulfonamide] |
| 157 | CC(C)S(=O)(=O)Nc1cccc(Cc2n[nH]c(=O)c3c2CCCC3)c1 [Example 115, N-(3-((4-oxo-3,4,5,6,7,8-hexahydrophthalazin-1-yl)methyl)phenyl)propane-2-sulfonamide] |
| 578 | O=c1[nH]nc(Cc2cccc(NS(=O)(=O)c3ccccc3)c2)c2c1CCCC2 [Example 116, N-(3-((4-oxo-3,4,5,6,7,8-hexahydrophthalazin-1-yl)methyl)phenyl)benzenesulfonamide] |
| 477 | O=c1[nH]nc(Cc2cccc(NS(=O)(=O)c3cccnc3)c2)c2c1CCCC2 [Example 117, N-(3-((4-oxo-3,4,5,6,7,8-hexahydrophthalazin-1-yl)methyl)phenyl)pyridine-3-sulfonamide] |
| 2030 | O=c1[nH]nc(Cc2cccc(NS(=O)(=O)c3ccco3)c2)c2c1CCCC2 [Example 118, N-(3-((4-oxo-3,4,5,6,7,8-hexahydrophthalazin-1-yl)methyl)phenyl)furan-2-sulfonamide] |
| 703 | Cn1cnc(S(=O)(=O)Nc2cccc(Cc3n[nH]c(=O)c4c3CCCC4)c2)c1 [Example 119, 1-methyl-N-(3-((4-oxo-3,4,5,6,7,8-hexahydrophthalazin-1-yl)methyl)phenyl)-1H-imidazole-4-sulfonamide] |
| 626 | O=c1[nH]nc(Cc2cccc(NS(=O)(=O)c3cccs3)c2)c2c1CCCC2 [Example 120, N-(3-((4-oxo-3,4,5,6,7,8-hexahydrophthalazin-1-yl)methyl)phenyl)thiophene-2-sulfonamide] |
| 776 | N#Cc1ccc(S(=O)(=O)Nc2cccc(Cc3n[nH]c(=O)c4c3CCCC4)c2)cc1 [Example 121, 4-cyano-N-(3-((4-oxo-3,4,5,6,7,8-hexahydrophthalazin-1-yl)methyl)phenyl)benzenesulfonamide] |
| 47 | O=C1CCCN1c1cccc(Cc2n[nH]c(=O)c3c2CCCC3)n1 [Example 125, 4-((6-(2-oxopyrrolidin-1-yl)pyridin-2-yl)methyl)-5,6,7,8-tetrahydrophthalazin-1(2H)-one] |
| 286 | O=C(Nc1cccc(Cc2n[nH]c(=O)c3c2CCCC3)n1)c1ccccc1 [Example 126, N-(6-((4-oxo-3,4,5,6,7,8-hexahydrophthalazin-1-yl)methyl)pyridin-2-yl)benzamide] |
| 43 | O=c1[nH]nc(Cc2cccc(-c3cccc(CNC4CCCC4)c3)c2)c2c1CCCC2 [Example 128, 4-((3′-((cyclopentylamino)methyl)-1,1′-biphenyl-3-yl)methyl)-5,6,7,8-tetrahydrophthalazin-1(2H)-one] |

| Structure (SMILES) | Ki [nM] |
| --- | --- |
| O=C1CCCN1c1cccc(Cc2n[nH]c(=O)c3c2CCCC3)c1 [Example 100, 4-(3-(2-oxopyrrolidin-1-yl)benzyl)-5,6,7,8-tetrahydrophthalazin-1(2H)-one] | 39 |
| NCC(=O)Nc1cccc(Cc2n[nH]c(=O)c3c2CCCC3)c1 [Example 111] | 12 |
| O=C(Nc1cccc(Cc2n[nH]c(=O)c3c2CCCC3)c1)C1CNC1 [Example 113, N-(3-((4-oxo-3,4,5,6,7,8-hexahydrophthalazin-1-yl)methyl)phenyl)azetidine-3-carboxamide] | 6 |
